# Source: patent US20240118210A1, “FFN FLUORESCENCE RELEASE ASSAY (FFRA) AND METHODS OF USING SAME” (Duke University, priority 2021, published 2024)
# B1: PF4: 31.2 kDa protein synthesized primarily by megakaryocytes and stored in platelet alpha granules (protein, UniProt P02776 32-101, looked up)
# Platelet factor 4: EAEEDGDLQCLCVKTTSQVRPRHITSLEVIKAGPHCPTAQLIATLKNGRKICLDLQAPLYKKIIKKLLES
# Legend:
# [1] = tested on: healthy donor washed platelets; test: FFN246 release on platelet activation with HIT-like monoclonal antibody KKO (Example 4, FIG. 3); type: cell-based; conditions: for MFI of platelet releasate, FFN246+agonist or antibody, no heparin: platelets loaded with 50 μM FFN246, 45 min, collagen 63 nM, SFLLRN 100 μM, KKO alone 25 μg/mL
# Description: To examine the effect of various platelet agonists on FFN246 release, healthy donor washed platelets were incubated with 50 μM FFN246 for 30 minutes, followed by addition of 1 mM imipramine for 10 minutes to block further reuptake. Platelets were then incubated with (1) A23187 10 μM; (2) collagen 63 nM; (3) SFLLRN 100 μM; (4) buffer; (5) KKO alone 25 μg/mL; (6) 0.5 U/mL heparin, 25 μg/ml KKO; (7) 10 U/mL heparin, 25 μg/mL KKO; (8) 0.5 U/mL heparin, 25 μg/mL TRA; and (9) A23187 10 μM (no FFN246). Incubation occurred for 45 minutes and platelets were centrifuged for 10 minutes at 576×g. Fluorescence in the platelet releasate was measured in a BMG Labtech Fluostar optima fluorometer at an appropriate emission/excitation spectra. Gain was set using the FFN246 releasate for each concentration at 50% of maximum signal.
# healthy donor platelets [2] = test: FFN246 release from platelets activated with A23187 at varying FFN246 concentrations (Example 2, FIG. 1); type: cell-based; conditions: for MFI of platelet releasate, FFN246+A23187: A23187 45 min
# Excerpt: Calcium (Ca) ionophores mobilize calcium ions from intracellular storage sites or transport it through the plasma membrane to increase the concentration of cytoplasmic calcium ions (Ca^2+) and thereby activate platelets. The Ca ionophore A23187 works by triggering release of Ca^2+ from the dense tubular system of platelets and is a potent activator of platelets. A23187 was used to test if FFN246 loaded platelets would release FFN246 into the supernatant upon activation.
# Platelets were then washed twice in buffer containing prostaglandin E1 (PGE1) and apyrase to minimize platelet activation. The washed platelets were resuspended in Mg^2+/Ca^2+ buffer without inhibitors. Washed platelets were then incubated with A23187 for 45 minutes, after which platelets were centrifuged for 10 minutes at 576×g. Fluorescence in the platelet releasate/supernatant was measured in a BMG Labtech Fluostar Optima fluorometer at an appropriate emission/excitation spectra. Gain was set using the FFN246 releasate for each concentration at 50% of maximum signal.
# healthy donor platelets [3] = test: FFN246 release with platelet activation by several platelet agonists (Example 3, FIG. 2); type: cell-based; conditions: for MFI of platelet releasate, FFN246+agonist: platelets loaded with 50 μM FFN246, 45 min, A23187 10 μM, ADP 25 μM, ristocetin 73 μM, collagen 63 nM, IIa 278 nM, PAR4 peptide 200 μM, SFLLRN 100 μM
# Description: To determine if FFN246 loaded platelets release FFN246 with other platelet agonists and receptor mechanisms, FFN246 release was examined by incubating platelets with several platelet secretogogues, including collagen, IIa, PAR4, SFLLRN. […] Collagen stimulates the GP VI receptor; ADP stimulates the P2Y1 and P2Y12 receptors; IIa activates PAR1 and PAR4 receptors; SFLLRN binds to the PAR1 receptor; PAR4 agonist binds the PAR4 receptor.
# To examine the effect of various platelet agonists on FFN246 release, healthy donor platelets were washed and incubated with and without FFN246 (50 μM) for 30 minutes, followed by the addition of 1 mM imipramine for 10 minutes to block further reuptake. Platelets were then incubated with the various conditions: (1) A23187 10 μM; (2) buffer alone; (3) ADP 25 μM; (4) ristocetin 73 μM; (5) collagen 63 nM; (6) IIa 278 nM; (7) PAR4 peptide 200 μM; (8) SFLLRN 100 μM: and (9) buffer only platelets+A23187 (10 μM) for 45 minutes. Following incubation with agonists, platelets were centrifuged for 10 minutes at 576×g. Fluorescence in the platelet releasate (i.e. supernatant) was measured in a BMG Labtech Fluostar Optima fluorometer at an appropriate emission/excitation spectra. Gain was set using the FFN246 releasate for each concentration at 50% of maximum signal.
# [4] = tested on: healthy donor platelet rich plasma; test: Release of FFN246 vs FFN102 from platelets exposed to calcium ionophore (Example 5, FIG. 4); type: cell-based; conditions: 100 μM FFN; for MFI of supernatant, FFN-loaded platelets incubated with ionophore: calcium ionophore
# Description: Drawing of donor blood and preparation of donor platelets. 10-20 cc of blood were drawn off into Acid-Citrate Dextrose. 20 mL of whole blood generated 8-10 mL of platelet rich plasma (PRP). The whole blood was spun down at 180 g for 20 minutes without using the brake. Donor PRP was separated and the needed PRP was calculated for each of the FFN246 and buffer conditions. 25 μM of FFN246 was added to the PRP condition labeled “FFN246”. 2.5 μL/mL of PGE1 was added to each PRP condition simultaneously. The mixture was incubated at 37° C. for 30 minutes in a H2O bath. For example, for 2.5 mL PRP, 6.25 μL PGE1 and 6.25 μL FFN246 were added. FFN246 was not added to the buffer PRP condition.
# The mixture was centrifuged at 700 g for 10 minutes with a brake at 22° C. to 26° C. The supernatant was discarded and the platelets were gently resuspended in PGE1/Apyrase buffer 1 mL per mL PRP for 15 minutes at room temperature. For example, 2.5 mL PRP was resuspended in 2.5 mL buffer. This was centrifuged at 700 g for 10 minutes at room temperature with a brake. The supernatant was discarded and FFN246 or platelets were resuspended into 2 mL/PRP of Ca/Mg buffer after using a pipette to completely remove PGE1/apyrase containing buffer above pellet. For example, 2.5 mL of platelets was resuspended with 5 mL of HT Ca/Mg.
# When various conditions were tested, such as NP40, buffer alone, buffer+heparin, SFLLRN, and additional conditions dictated by an experiment, the following aliquots were added: agonist, plasma, or antibody; buffer added to agonist to make 50 μL total; and 150 μL of FFN246 buffer labeled platelets. The conditions were allowed to develop for 1 hour at 37° C. on an agitator. The conditions were then centrifuged at 700 g for 10 mins at room temperature with a brake. 75 μL of the supernatant was added per well in triplicate. Fluorometer analysis was ran within 1 hour at appropriate excitation/emission spectra (FFN246 ex/em (nm): 392/427).
# The amount of FFN246 released from platelets was compared to that of FFN102, a dopaminergic fluorophore. Healthy donor platelet rich plasma was incubated with 100 μM of FFN246, FFN102, or buffer alone. Incubation and washing occurred per the protocol described in Example 1. Resuspended platelets were added either to calcium ionophore or buffer conditions for both FFN246 and FFN102. Supernatant was collected following centrifugation and analyzed using fluorometry.
# [5] = target: norepinephrine transporters (NET) (Homo sapiens, UniProt P23975); conditions: relative to SERT uptake; cited from earlier work
# Chain of norepinephrine transporters (NET) (P23975 whole entry): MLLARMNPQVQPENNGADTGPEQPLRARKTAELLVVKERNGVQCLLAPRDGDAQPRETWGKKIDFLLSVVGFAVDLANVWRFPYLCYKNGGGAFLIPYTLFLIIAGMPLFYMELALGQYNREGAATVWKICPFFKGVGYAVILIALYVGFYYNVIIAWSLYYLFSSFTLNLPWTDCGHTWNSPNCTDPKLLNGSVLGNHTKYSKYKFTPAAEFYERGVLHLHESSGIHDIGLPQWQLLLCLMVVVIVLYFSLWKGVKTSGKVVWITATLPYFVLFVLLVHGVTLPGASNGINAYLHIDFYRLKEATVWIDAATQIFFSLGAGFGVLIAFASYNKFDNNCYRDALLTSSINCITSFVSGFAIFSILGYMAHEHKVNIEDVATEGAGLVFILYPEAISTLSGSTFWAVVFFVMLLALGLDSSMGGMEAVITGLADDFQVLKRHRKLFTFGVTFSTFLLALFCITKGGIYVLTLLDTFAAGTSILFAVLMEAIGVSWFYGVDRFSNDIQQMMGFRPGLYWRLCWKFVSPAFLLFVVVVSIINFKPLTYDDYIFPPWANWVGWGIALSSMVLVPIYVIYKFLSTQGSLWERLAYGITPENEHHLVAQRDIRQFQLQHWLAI
# 5-HT receptors = conditions: cited from earlier work
# [6] = target: dopamine transporters (DAT) (Homo sapiens, UniProt Q01959); conditions: relative to SERT uptake; cited from earlier work
# Chain of dopamine transporters (DAT) (Q01959 whole entry, species assumed): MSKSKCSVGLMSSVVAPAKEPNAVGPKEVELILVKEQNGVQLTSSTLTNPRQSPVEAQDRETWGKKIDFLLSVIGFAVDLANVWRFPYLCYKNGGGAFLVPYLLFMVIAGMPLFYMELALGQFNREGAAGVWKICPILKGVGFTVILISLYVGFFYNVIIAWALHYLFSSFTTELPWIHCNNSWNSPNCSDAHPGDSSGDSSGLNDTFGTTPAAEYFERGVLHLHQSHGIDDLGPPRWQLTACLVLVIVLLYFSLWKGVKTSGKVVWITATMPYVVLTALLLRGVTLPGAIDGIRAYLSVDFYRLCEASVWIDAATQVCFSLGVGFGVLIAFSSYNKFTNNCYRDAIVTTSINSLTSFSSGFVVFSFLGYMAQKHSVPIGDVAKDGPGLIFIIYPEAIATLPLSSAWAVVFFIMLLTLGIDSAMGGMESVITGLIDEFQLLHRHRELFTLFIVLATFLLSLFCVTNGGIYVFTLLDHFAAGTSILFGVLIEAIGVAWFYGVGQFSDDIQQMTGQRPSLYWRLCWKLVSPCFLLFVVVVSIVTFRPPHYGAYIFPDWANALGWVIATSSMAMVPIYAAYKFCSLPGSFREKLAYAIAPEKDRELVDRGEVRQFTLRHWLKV
# platelets = test: PF4 addition to assay conditions (platelet activation); type: cell-based; conditions: 30 μg/ml; healthy donor and HIT samples; absence of heparin addition
# Excerpt: PF4 addition to assay conditions. Platelet factor 4 (PF4) is a 31.2 kDa protein synthesized primarily by megakaryocytes and stored in platelet alpha granules. Positively charged PF4 forms ultra large immune complexes with negatively charged heparin in patients who develop pathological heparin induced thrombocytopenia (HIT).
molecule,measurement,setting,value
CNc1ccc2oc(C[C@H]3O[C@@]4(CC[C@H]3C)O[C@H]([C@H](C)C(=O)c3ccc[nH]3)[C@H](C)C[C@H]4C)nc2c1C(=O)O [A23187],"MFI of platelet releasate, buffer+calcium ionophore (no FFN246)","[1]; A23187 10 μM, no FFN246",11399
same,"MFI of platelet releasate, FFN246+agonist or antibody, no heparin",[1]; A23187 10 μM,32674
same,"MFI of platelet releasate, buffer+A23187 (no FFN246)",healthy donor platelets [2]; background paired with 10 uM FFN246 condition,"10,100"
same,"MFI of platelet releasate, buffer+A23187 (no FFN246)",healthy donor platelets [2]; background paired with 25 μM FFN246 condition,"4,707"
same,"MFI of platelet releasate, buffer+A23187 (no FFN246)",healthy donor platelets [2]; background paired with 50 μM FFN246 condition,"3,461"
same,"MFI of platelet releasate, buffer+A23187 (no FFN246)",healthy donor platelets [2]; background paired with 100 μM FFN246 condition,"1,676"
same,"MFI of platelet releasate, buffer+calcium ionophore (no FFN246)",healthy donor platelets [3]; buffer only platelets + A23187 10 μM,12526
same,"MFI of platelet releasate, FFN246+agonist",healthy donor platelets [3],31924
Cl.NCCc1cc(=O)oc2cc(O)c(Cl)cc12 [FFN102],"MFI of supernatant, FFN-loaded platelets incubated with buffer",[4],7247+352
same,"MFI of supernatant, FFN-loaded platelets incubated with ionophore",[4],9845+352
"Nc1ncnc2c1ncn2[C@@H]1O[C@H](COP(=O)(O)OP(=O)(O)O)[C@@H](O)[C@H]1O [ADP, adenosine diphosphate]","MFI of platelet releasate, FFN246+agonist",healthy donor platelets [3],14013
NCCc1ccc2[nH]c3cccc(F)c3c(=O)c2c1 [FFN246],"uptake by norepinephrine transporters (NET), lower than SERT",[5],23%
same,activity at 5-HT receptors,5-HT receptors,no activity at 5-HT receptors
same,binding to neurotransmitter receptors,5-HT receptors,does not bind to neurotransmitter receptors
same,"MFI of platelet releasate, FFN246+buffer","[1]; 50 μM FFN246, no agonist",11688
same,"MFI of platelet releasate, FFN246+A23187",healthy donor platelets [2]; 10 uM FFN246,"25,790"
same,"MFI of platelet releasate, FFN246+A23187",healthy donor platelets [2]; 25 μM FFN246,"36,124"
same,"MFI of platelet releasate, FFN246+A23187",healthy donor platelets [2]; 50 μM FFN246,"30,470"
same,"MFI of platelet releasate, FFN246+A23187",healthy donor platelets [2]; 100 μM FFN246,"35,405"
same,"MFI of supernatant, FFN-loaded platelets incubated with buffer",[4],"15,692+1203"
same,"MFI of supernatant, FFN-loaded platelets incubated with ionophore",[4],32901+448
same,"uptake by dopamine transporters (DAT), lower than SERT",[6],31%
same,"MFI of platelet releasate, FFN246+buffer","healthy donor platelets [3]; 50 μM FFN246, no agonist",12199
SFLLRN,"MFI of platelet releasate, FFN246+agonist or antibody, no heparin",[1]; A23187 10 μM,25426
same,"MFI of platelet releasate, FFN246+agonist",healthy donor platelets [3],26703
ristocetin,"MFI of platelet releasate, FFN246+agonist",healthy donor platelets [3],12247
collagen,"MFI of platelet releasate, FFN246+agonist or antibody, no heparin",[1]; A23187 10 μM,24388
same,"MFI of platelet releasate, FFN246+agonist",healthy donor platelets [3],24369
B1,platelet activation by exogenous PF4 added to plasma conditions,platelets,led to platelet activation
